The term Kd denotes the concentration at which binding is half-saturated. One may read the IC50 as the concentration that gives 50% inhibition. In general, EC50 refers to the midpoint of the concentration-response curve.

Each structure is given as a SMILES string.

Assay [1] addresses RAF kinases (Homo sapiens, UniProt P04049). The conditions noted are these: read-out: RAF1 Kd; RAF1.
The target in assay [2] is RAF kinases (Homo sapiens, UniProt P15056, V600E). The note with it: read-out: BRAF V600E Kd; BRAF V600E.
Assay [3] addresses RAF kinases (Homo sapiens, UniProt P15056). The conditions noted are these: read-out: BRAF WT Kd; BRAF WT.
Assay [4] has as its system MEK1 phosphorylation in the A375 human melanoma cell line. Nature of the assay: cells. The conditions noted are these: A-375, read-out: pMEK IC50.
Assay [5] has as its system A375 cells. Briefly: cells. The note with it: Homo sapiens, A-375, read-out: A375 Viability EC50.

RAF kinases (Homo sapiens, UniProt P15056), sequence (P15056 whole entry): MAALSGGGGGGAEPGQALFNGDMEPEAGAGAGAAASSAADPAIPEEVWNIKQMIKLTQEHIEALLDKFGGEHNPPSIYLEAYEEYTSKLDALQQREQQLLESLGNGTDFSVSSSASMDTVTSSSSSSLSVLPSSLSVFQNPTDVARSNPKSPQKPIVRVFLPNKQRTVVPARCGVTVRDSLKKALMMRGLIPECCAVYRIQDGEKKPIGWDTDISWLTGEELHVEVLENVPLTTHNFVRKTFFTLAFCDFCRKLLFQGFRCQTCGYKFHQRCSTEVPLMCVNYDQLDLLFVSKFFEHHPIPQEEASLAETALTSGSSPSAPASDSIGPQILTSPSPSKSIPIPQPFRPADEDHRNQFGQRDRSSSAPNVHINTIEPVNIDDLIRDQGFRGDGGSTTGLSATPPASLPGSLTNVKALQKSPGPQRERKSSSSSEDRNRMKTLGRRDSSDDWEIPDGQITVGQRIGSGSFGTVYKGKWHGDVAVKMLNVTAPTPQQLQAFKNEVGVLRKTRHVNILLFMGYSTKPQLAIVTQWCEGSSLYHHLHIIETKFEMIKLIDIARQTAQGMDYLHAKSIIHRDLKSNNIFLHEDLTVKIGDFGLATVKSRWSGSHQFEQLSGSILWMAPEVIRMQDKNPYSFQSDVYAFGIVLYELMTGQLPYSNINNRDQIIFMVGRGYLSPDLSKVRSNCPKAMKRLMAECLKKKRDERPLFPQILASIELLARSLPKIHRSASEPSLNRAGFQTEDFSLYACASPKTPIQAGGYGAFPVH
RAF kinases (Homo sapiens, UniProt P15056, V600E), sequence (P15056 whole entry V600E): as the sequence (P15056 whole entry) above, with V600E counted along it
RAF kinases (Homo sapiens, UniProt P04049), sequence (P04049 whole entry): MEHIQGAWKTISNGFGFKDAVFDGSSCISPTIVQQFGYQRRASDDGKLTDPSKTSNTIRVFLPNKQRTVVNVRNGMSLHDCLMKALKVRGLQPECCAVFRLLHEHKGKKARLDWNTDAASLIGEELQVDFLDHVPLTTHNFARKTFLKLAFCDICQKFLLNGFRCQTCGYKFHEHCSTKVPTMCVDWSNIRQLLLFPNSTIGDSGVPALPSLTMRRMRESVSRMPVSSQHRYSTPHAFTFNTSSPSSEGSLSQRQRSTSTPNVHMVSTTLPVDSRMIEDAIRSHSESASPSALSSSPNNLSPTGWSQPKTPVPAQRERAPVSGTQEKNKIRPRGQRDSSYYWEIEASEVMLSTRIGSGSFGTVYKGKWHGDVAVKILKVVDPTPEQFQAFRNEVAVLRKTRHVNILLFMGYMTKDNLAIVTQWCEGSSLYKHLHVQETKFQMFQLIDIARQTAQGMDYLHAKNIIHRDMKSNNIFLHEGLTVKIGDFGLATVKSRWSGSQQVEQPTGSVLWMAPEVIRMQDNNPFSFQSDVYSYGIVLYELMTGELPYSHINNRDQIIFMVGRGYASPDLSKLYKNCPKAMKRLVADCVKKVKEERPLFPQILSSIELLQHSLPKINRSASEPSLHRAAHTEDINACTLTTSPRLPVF

Take `CCOc1cc2ncnc(Sc3cccc(NC(=O)Nc4cc(C(C)(CF)CF)on4)c3)c2cc1OC` [Example 388, 1-(5-(1,3-difluoro-2-methylpropan-2-yl)isoxazol-3-yl)-3-(3-(7-ethoxy-6-methoxyquinazolin-4-ylthio)phenyl)urea]: the Kd in assay [1], in assay [2] and in assay [3] was below 250 nM in each case. In addition, the IC50 in assay [4] lay within 250 to 500 nM. Further, the EC50 in assay [5] lay in the range of 250 to 500 nM.

With `COCCOc1cc2ncnc(Oc3cccc(NC(=O)Nc4cc(C(F)(F)F)nn4C)c3)c2cc1OC` [Ex 220, 1-{3-[6-methoxy-7-(2-methoxyethoxy)quinazolin-4-yloxy]phenyl}-3-[1-methyl-3-(trifluoromethyl)-1H-pyrazol-5-yl]urea], the Kd in assay [1], in assay [2] and in assay [3] was below 250 nM each time. For the same compound, the IC50 in assay [4] was 500 to 1000 nM. The EC50 in assay [5] is above 1000 nM.

As to `CCOc1cc2ncnc(Oc3cccc(NC(=O)Nc4cc(C(C)(CF)CF)on4)c3)c2cc1OC` [Ex 386, 1-(5-(1,3-difluoro-2-methylpropan-2-yl)isoxazol-3-yl)-3-(3-(7-ethoxy-6-methoxyquinazolin-4-yloxy)phenyl)urea], the Kd in assay [1], in assay [2] and in assay [3] was below 250 nM each time. Besides, the half-maximal inhibitory concentration (IC50) in assay [4] is below 250 nM. In addition, the concentration for a half-maximal effect (EC50) in assay [5] was below 250 nM.

Take `COc1cc2ncnc(Oc3cccc(NC(=O)Nc4cc(C(C)(C)C(F)(F)F)no4)c3)c2cc1OC` [Ex 267, 1-(3-(6,7-dimethoxyquinazolin-4-yloxy)phenyl)-3-(3-(1,1,1-trifluoro-2-methylpropan-2-yl)isoxazol-5-yl)urea]: the Kd in assay [1], in assay [2] and in assay [3] was below 250 nM throughout. Moreover, the half-inhibitory concentration (IC50) in assay [4] was below 250 nM. Further, the EC50 in assay [5] is 500 to 1000 nM.

As for `COc1cc2c(Oc3cccc(NC(=O)Nc4cc(C(C)(C)C(F)(F)F)on4)c3)ncnc2cc1O` [Ex 263, 1-(3-(7-hydroxy-6-methoxyquinazolin-4-yloxy)phenyl)-3-(5-(1,1,1-trifluoro-2-methylpropan-2-yl)isoxazol-3-yl)urea], the dissociation constant (Kd) in assay [1], in assay [2] and in assay [3] was below 250 nM each time. In assay [4], the half-maximal inhibitory concentration (IC50) is below 250 nM. Also, the EC50 in assay [5] is 500 to 1000 nM.

On to `COc1cc2ncnc(Oc3cc(NC(=O)Nc4cc(C(C)(C)F)no4)c(F)cc3F)c2cc1OC` [Ex 269, 1-(5-(6,7-dimethoxyquinazolin-4-yloxy)-2,4-difluorophenyl)-3-(3-(2-fluoropropan-2-yl)isoxazol-5-yl)urea], for which the dissociation constant Kd in assay [1], in assay [2] and in assay [3] was below 250 nM in each case. Besides, the IC50 in assay [4] was below 250 nM. Besides, the EC50 in assay [5] was below 250 nM.

On to `COc1cc2ncnc(Sc3cccc(NC(=O)Nc4cc(C(C)(C)C)nn4-c4ccc(C)cc4C)c3)c2cc1OC` [Ex 284, 1-(3-tert-butyl-1-(2,4-dimethylphenyl)-1H-pyrazol-5-yl)-3-(3-(6,7-dimethoxyquinazolin-4-ylthio)phenyl)urea], for which the equilibrium dissociation constant (Kd) in assay [1], in assay [2] and in assay [3] was above 1000 nM throughout. The half-maximal inhibitory concentration (IC50) in assay [4] was below 250 nM. Further, in assay [5], the concentration giving a half-maximal response (EC50) was above 1000 nM.

For the compound `CCOc1cc2c(Oc3cccc(NC(=O)Nc4cc(C(C)(C)F)no4)c3)ncnc2cc1OC` [Ex 392, 1-(3-(6-ethoxy-7-methoxyquinazolin-4-yloxy)phenyl)-3-(3-(2-fluoropropan-2-yl)isoxazol-5-yl)urea], the dissociation constant Kd in assay [1], in assay [2] and in assay [3] was below 250 nM throughout. Moreover, in assay [4], the IC50 is below 250 nM. Moreover, the half-maximal effective concentration (EC50) in assay [5] is below 250 nM.

For `COc1cc2ncnc(Oc3cccc(NC(=O)Nc4cc(C(C)(C)F)no4)c3)c2cc1O` [Ex 258, 1-(3-(2-fluoropropan-2-yl)isoxazol-5-yl)-3-(3-(6-hydroxy-7-methoxyquinazolin-4-yloxy)phenyl)urea], the dissociation constant (Kd) in assay [1], in assay [2] and in assay [3] was below 250 nM in each case. Besides, the IC50 in assay [4] was below 250 nM. Moreover, in assay [5], the concentration giving a half-maximal response (EC50) is 250 to 500 nM.

In the case of `COCCOc1cc2ncnc(Oc3cccc(NC(=O)Nc4cccc(C(C)(C)C#N)c4)c3)c2cc1OC` [Ex 280, 1-(3-(2-cyanopropan-2-yl)phenyl)-3-(3-(6-methoxy-7-(2-methoxyethoxy)quinazolin-4-yloxy)phenyl)urea], the Kd in assay [1], in assay [2] and in assay [3] was below 250 nM in each case. Besides, in assay [4], the concentration for half-maximal inhibition (IC50) is 500 to 1000 nM. Further, in assay [5], the half-maximal effective concentration (EC50) was above 1000 nM.

Consider `COCCOc1cc2ncnc(Oc3cccc(NC(=O)Nc4cc(C5CCCC5)on4)c3)c2cc1OC` [Ex 219, 1-(5-cyclopentylisoxazol-3-yl)-3-(3-(6-methoxy-7-(2-methoxyethoxy)quinazolin-4-yloxy)phenyl)urea], for which the Kd in assay [1], in assay [2] and in assay [3] was below 250 nM in each case. For the same compound, in assay [4], the IC50 was below 250 nM. In assay [5], the half-maximal effective concentration (EC50) is 250 to 500 nM.

`COCCOc1cc2ncnc(Sc3cccc(NC(=O)Nc4cc(C(F)(F)F)nn4-c4ccc(C)cc4)c3)c2cc1OC` [Ex 243, 1-{3-[6-methoxy-7-(2-methoxyethoxy)quinazolin-4-ylthio]phenyl}-3-[1-p-tolyl-3-(trifluoromethyl)-1H-pyrazol-5-yl]urea]: the Kd in assay [1], in assay [2] and in assay [3] was above 1000 nM each time. Besides, the IC50 in assay [4] was 250 to 500 nM. Besides, the concentration for a half-maximal effect (EC50) in assay [5] lay within 250 to 500 nM.

In the case of `COCCOc1cc2ncnc(Sc3cccc(NC(=O)Nc4cc(C(C)C)on4)c3)c2cc1OC` [Ex 232, 1-(5-isopropylisoxazol-3-yl)-3-(3-(6-methoxy-7-(2-methoxyethoxy)quinazolin-4-ylthio)phenyl)urea], the Kd in assay [1], in assay [2] and in assay [3] was below 250 nM in each case. In addition, the IC50 in assay [4] is 250 to 500 nM. The EC50 in assay [5] is above 1000 nM.

Consider `COc1cc2ncnc(Oc3cc(NC(=O)Nc4cc(C(C)(C)F)no4)ccc3F)c2cc1OC` [Ex293, 1-(3-(6,7-dimethoxyquinazolin-4-yloxy)-4-fluorophenyl)-3-(3-(2-fluoropropan-2-yl)isoxazol-5-yl)urea], for which the equilibrium dissociation constant (Kd) in assay [1], in assay [2] and in assay [3] was below 250 nM each time. Moreover, the half-inhibitory concentration (IC50) in assay [4] is below 250 nM. Further, the 50% effective concentration (EC50) in assay [5] was 250 to 500 nM.

As for `COc1cc2ncnc([S+]([O-])c3cccc(NC(=O)Nc4cc(C(C)(C)C)on4)c3)c2cc1OC` (stereo not drawn) [Ex 253, 1-(5-tert-butylisoxazol-3-yl)-3-(3-(6,7-dimethoxyquinazolin-4-ylsulfinyl)phenyl)urea], the dissociation constant Kd in assay [1], in assay [2] and in assay [3] was above 1000 nM in each case. Besides, the 50% inhibitory concentration (IC50) in assay [4] fell in the range of 500 to 1000 nM. For the same compound, in assay [5], the EC50 is above 1000 nM.

Turning to `COc1cc2c(Oc3cccc(NC(=O)Nc4ccc(OC)c(C(F)(F)F)c4)c3)ncnc2cc1OCCN1CCOCC1` [Ex 250, 1-(4-methoxy-3-(trifluoromethyl)phenyl)-3-(3-(6-methoxy-7-(2-morpholinoethoxy)quinazolin-4-yloxy)phenyl)urea], the dissociation constant Kd in assay [1], in assay [2] and in assay [3] was below 250 nM in each case. Further, the IC50 in assay [4] was 250 to 500 nM. In assay [5], the EC50 was above 1000 nM.

On to `COCCOc1cc2ncnc(Sc3cccc(NC(=O)Nc4cc(C(C)(CF)CF)nn4-c4ccccc4)c3)c2cc1OC` [Ex 238, 1-[3-(1,3-difluoro-2-methylpropan-2-yl)-1-phenyl-1H-pyrazol-5-yl]-3-{3-[6-methoxy-7-(2-methoxyethoxy)quinazolin-4-ylthio]phenyl}urea], for which the Kd in assay [1], in assay [2] and in assay [3] was above 1000 nM in each case. The concentration for half-maximal inhibition (IC50) in assay [4] was below 250 nM. Besides, in assay [5], the concentration for a half-maximal effect (EC50) was above 1000 nM.

In the case of `CCc1cc(NC(=O)Nc2cccc(Sc3ncnc4cc(OC)c(OC)cc34)c2)n(-c2ccccc2)n1` [Ex 399, 1-(3-(6,7-dimethoxyquinazolin-4-ylthio)phenyl)-3-(3-ethyl-1-phenyl-1H-pyrazol-5-yl)urea], the dissociation constant (Kd) in assay [1], in assay [2] and in assay [3] was below 250 nM in each case. In assay [4], the IC50 was in the range of 250 to 500 nM. Moreover, the EC50 in assay [5] fell in the range of 250 to 500 nM.

As to `CCOc1cc2c(Oc3cccc(NC(=O)Nc4cc(C(C)(CF)CF)on4)c3)ncnc2cc1OC` [Ex 393, 1-(5-(1,3-difluoro-2-methylpropan-2-yl)isoxazol-3-yl)-3-(3-(6-ethoxy-7-methoxyquinazolin-4-yloxy)phenyl)urea], the equilibrium dissociation constant (Kd) in assay [1], in assay [2] and in assay [3] was below 250 nM each time. The half-inhibitory concentration (IC50) in assay [4] was below 250 nM. In addition, the concentration for a half-maximal effect (EC50) in assay [5] was below 250 nM.

With `CCOc1cc2c(Sc3cccc(NC(=O)Nc4cc(C(C)(C)F)no4)c3)ncnc2cc1OC` [Ex 394, 1-(3-(6-ethoxy-7-methoxyquinazolin-4-ylthio)phenyl)-3-(3-(2-fluoropropan-2-yl)isoxazol-5-yl)urea], the Kd in assay [1], in assay [2] and in assay [3] was below 250 nM each time. Moreover, the IC50 in assay [4] was below 250 nM. Also, the concentration for a half-maximal effect (EC50) in assay [5] fell in the range of 250 to 500 nM.

Regarding `COc1cc2ncnc(Sc3cccc(NC(=O)Nc4cccc(C(C)(C)C#N)c4)c3)c2cc1OC` [Ex 279, 1-(3-(2-cyanopropan-2-yl)phenyl)-3-(3-(6,7-dimethoxyquinazolin-4-ylthio)phenyl)urea], the Kd in assay [1], in assay [2] and in assay [3] was below 250 nM throughout. The IC50 in assay [4] fell in the range of 250 to 500 nM. In addition, the EC50 in assay [5] is above 1000 nM.

The values are drawn from US8618289B2 (Ambit Biosciences Corporation, priority 2008, dated 2013).
